Patent US20230121313A1 (priority 2019, published 2023)

Key:
[1] = system: patients with treatment-resistant depression (TRD); assay: Adverse events, phase 2 dose-response study in TRD; assay type: in vivo, human
Description: Adverse events were monitored throughout the study. Other safety assessments (i.e., laboratory tests, vital signs, physical examination) were performed at pre-specified time points. Vital signs, the Clinician Administered Dissociative States Scale (CADSS; Bremner, “Measurement of dissociative states with the clinician-administered dissociative states scale (CADSS)”, J. Traumatic Stress, 1998, 11(1):125-136), and the 4-item positive symptom subscale from the Brief Psychiatric Rating Scale (BPRS; Overall, “The Brief Psychiatric Rating Scale. Psychological Reports”, 1962, 10:799-812) were assessed pre-dose, at 40 minutes, and 2 hours post-dose.
Safety data were analyzed in Period 1, Period 2, double-blind, and open-label data sets, for all subjects receiving at least 1 dose of study medication.

[2] = system: subjects with MDD at imminent risk for suicide; conditions: human, in vivo, other: intranasal, 84 mg
Description: The CADSS was measured prior to the start of each dose, at 40 minutes, 2 hours, and 4 hours postdose.

[3] = double-blind, esketamine 84 mg, N = 17
[4] = double-blind, esketamine Total, N = 56

CN[C@]1(c2ccccc2Cl)CCCCC1=O [esketamine, (S)-2-(2-chlorophenyl)-2-(methylamino)cyclohexanone]
Feeling abnormal, number of participants [1, 3]: 1
Headache, % of participants [1, 3]: (18) %
Headache, number of participants [1, 3]: 3
Hypersomnia, number of participants [1, 3]: 0
Hypertension, % of participants [1, 3]: (6) %
Hypertension, number of participants [1, 3]: 1
Hypoesthesia oral, % of participants [1, 3]: (12) %
Hypoesthesia oral, number of participants [1, 3]: 2
Insomnia, number of participants [1, 3]: 0
Nasal discomfort, % of participants [1, 3]: (6) %
Nasal discomfort, number of participants [1, 3]: 1
Nausea, % of participants [1, 3]: (24) %
Nausea, number of participants [1, 3]: 4
Oropharyngeal pain, % of participants [1, 3]: (12) %
Oropharyngeal pain, number of participants [1, 3]: 2
Polyuria, number of participants [1, 3]: 0
Sedation, % of participants [1, 3]: (6) %
Sedation, number of participants [1, 3]: 1
Throat irritation, % of participants [1, 3]: (12) %
Throat irritation, number of participants [1, 3]: 2
Total with events, % of participants [1, 3]: (88) %
Total with events, number of participants [1, 3]: 15
Tunnel vision, % of participants [1, 3]: (12) %
Tunnel vision, number of participants [1, 3]: 2
Vertigo, % of participants [1, 3]: (6) %
Vertigo, number of participants [1, 3]: 1
Vision blurred, % of participants [1, 3]: (12) %
Vision blurred, number of participants [1, 3]: 2
Dissociation, % of participants [1, 4]: (20) %
Dissociation, number of participants [1, 4]: 11
Dissociative disorder, % of participants [1, 4]: (13) %
Dissociative disorder, number of participants [1, 4]: 7
Dizziness, % of participants [1, 4]: (36) %
Dizziness, number of participants [1, 4]: 20
Dysgeusia, % of participants [1, 4]: (18) %
Dysgeusia, number of participants [1, 4]: 10
Feeling abnormal, % of participants [1, 4]: (7) %
Feeling abnormal, number of participants [1, 4]: 4
Headache, % of participants [1, 4]: (21) %
Headache, number of participants [1, 4]: 12
Hypersomnia, % of participants [1, 4]: (4) %
Hypersomnia, number of participants [1, 4]: 2
Hypertension, % of participants [1, 4]: (5) %
Hypertension, number of participants [1, 4]: 3
Hypoesthesia oral, % of participants [1, 4]: (13) %
Hypoesthesia oral, number of participants [1, 4]: 7
Insomnia, % of participants [1, 4]: (4) %
Insomnia, number of participants [1, 4]: 2
Nasal discomfort, % of participants [1, 4]: (5) %
Nasal discomfort, number of participants [1, 4]: 3
Nausea, % of participants [1, 4]: (18) %
Nausea, number of participants [1, 4]: 10
Oropharyngeal pain, % of participants [1, 4]: (5) %
Oropharyngeal pain, number of participants [1, 4]: 3
Polyuria, % of participants [1, 4]: (4) %
Polyuria, number of participants [1, 4]: 2
Sedation, % of participants [1, 4]: (7) %
Sedation, number of participants [1, 4]: 4
Throat irritation, % of participants [1, 4]: (5) %
Throat irritation, number of participants [1, 4]: 3
Total with events, % of participants [1, 4]: (75) %
Total with events, number of participants [1, 4]: 42
Tunnel vision, % of participants [1, 4]: (4) %
Tunnel vision, number of participants [1, 4]: 2
Vertigo, % of participants [1, 4]: (7) %
Vertigo, number of participants [1, 4]: 4
Vision blurred, % of participants [1, 4]: (4) %
Vision blurred, number of participants [1, 4]: 2
Participants with adverse events leading to discontinuation of study drug ([1]; phase 2, double-blind phase): 5%
Adverse event dizziness, % of participants ([1]; phase 2, open-label phase): 38.6%
Adverse event dysgeusia, % of participants ([1]; phase 2, open-label phase): 22.8%
Adverse event headache, % of participants ([1]; phase 2, open-label phase): 14.0%
Adverse event nausea, % of participants ([1]; phase 2, open-label phase): 15.8%
Adverse event sedation, % of participants ([1]; phase 2, open-label phase): 10.5%
Participants reporting transient dissociative symptoms ([1]; phase 2, open-label phase): 24.6%
Participants with adverse events leading to discontinuation of study drug ([1]; phase 2, open-label phase): 2%
CADSS dissociative and perceptual change symptoms resolved by (postdose) [2]: ≤ 2 h
